{
  "source": "the SangsterLogP compilation",
  "assay": "method code SF, from Hansch, C. & Leo, A. (1987). Log P database [Dataset]. Pomona College Medicinal Chemistry Project.",
  "data": [
    {"compound": "O=C1OC(Cc2ccccc2)c2ccccc21", "note": "(stereo unspecified)", "values": [
      {"measurement": "logP", "result": 3.12}
    ]},
    {"compound": "Cc1ccc2c(=O)[nH]c(=O)[nH]c2c1", "values": [
      {"measurement": "logP", "result": 0.55}
    ]},
    {"compound": "O=c1cnn([C@@H]2O[C@H](CO)[C@@H](O)[C@H]2O)c(=O)[nH]1", "values": [
      {"measurement": "logP", "result": -2.14}
    ]},
    {"compound": "CC(=O)c1ccccc1O", "values": [
      {"measurement": "logP", "result": 1.88}
    ]},
    {"compound": "c1nnn[nH]1", "values": [
      {"measurement": "logP", "result": -0.6}
    ]},
    {"compound": "CC(=O)OC(OC(C)=O)c1ccc([N+](=O)[O-])o1", "values": [
      {"measurement": "logD", "setting": "pH 8.0", "result": 1.06}
    ]},
    {"compound": "Cn1c(=O)cnc2ccccc21", "values": [
      {"measurement": "logP", "result": 0.79}
    ]},
    {"compound": "CC(=O)OC[C@H]1O[C@@H](NC(=O)N(CCCl)N=O)[C@H](OC(C)=O)[C@@H](OC(C)=O)[C@H]1OC(C)=O", "values": [
      {"measurement": "logP", "result": 1.04}
    ]},
    {"compound": "O=C(O)c1cc(=O)c2cc3c(cc2o1)CCCC3", "values": [
      {"measurement": "logP", "result": 3.4}
    ]},
    {"compound": "O=C1C=C(O)CCN1[C@@H]1O[C@H](CO)[C@@H](O)[C@H]1O", "values": [
      {"measurement": "logD", "setting": "pH 7.4", "result": -2.28}
    ]},
    {"compound": "Cc1c(N(C)C)c(=O)n(C)c(=O)n1-c1ccccc1", "values": [
      {"measurement": "logD", "setting": "pH 7.4", "result": 1.19}
    ]},
    {"compound": "COc1ccc([N+]([O-])=NC#N)cc1", "values": [
      {"measurement": "logP", "result": 2.15}
    ]},
    {"compound": "ClCCOCCCl", "values": [
      {"measurement": "logP", "result": 1.29}
    ]},
    {"compound": "Cc1ccccn1", "values": [
      {"measurement": "logP", "result": 1.11}
    ]},
    {"compound": "CC(C)c1ccccc1O", "values": [
      {"measurement": "logP", "result": 2.88}
    ]},
    {"compound": "CNC(=O)O/N=C(\\C)C(C)(C)[N+](=O)[O-]", "values": [
      {"measurement": "logP", "result": 0.66}
    ]},
    {"compound": "O=C1C=CC(=NBr)C=C1", "values": [
      {"measurement": "logP", "result": 1.12}
    ]},
    {"compound": "CCC(C)NC(=O)C=Cc1ccc(Cl)cc1", "note": "(stereo unspecified)", "values": [
      {"measurement": "logP", "result": 3.37}
    ]},
    {"compound": "NC(=O)c1cccc(N)c1", "values": [
      {"measurement": "logP", "result": -0.33}
    ]},
    {"compound": "CNC(N)=NC#N", "values": [
      {"measurement": "logP", "result": -0.77}
    ]},
    {"compound": "BrCCBr", "values": [
      {"measurement": "logP", "result": 1.96}
    ]},
    {"compound": "Nc1nc(=O)c2ccccc2o1", "values": [
      {"measurement": "logP", "result": 0.27}
    ]},
    {"compound": "S=C=Nc1ccccc1", "values": [
      {"measurement": "logP", "result": 3.25}
    ]},
    {"compound": "CC(=O)NC(=O)NC(C)=O", "values": [
      {"measurement": "logP", "result": -0.68}
    ]},
    {"compound": "C=CCN(CC=C)c1c(C)n(-c2ccccc2)c(=O)n(C)c1=O", "values": [
      {"measurement": "logD", "setting": "pH 7.4", "result": 2.59}
    ]},
    {"compound": "CCC1OC(=O)C(C)C(OC2CC(C)(OC)C(O)C(C)O2)C(C)C(OC2OC(C)CC(N(C)C)C2O)C(C)(O)CC(C)C(=O)C(C)C(OC(C)=O)C1C", "note": "(stereo unspecified)", "values": [
      {"measurement": "logP", "result": 3.32}
    ]},
    {"compound": "O=c1[nH]cc(C(F)(F)F)c(=O)[nH]1", "values": [
      {"measurement": "logP", "result": 0.04}
    ]},
    {"compound": "CO[C@H]1O[C@H](CO)[C@@H](O)[C@H](NC(=O)N(C)N=O)[C@H]1O", "values": [
      {"measurement": "logD", "setting": "pH 7.4", "result": -1.45}
    ]},
    {"compound": "CCOC(=O)C(=Cc1ccc(OC)c(OC)c1)C(=O)OCC", "values": [
      {"measurement": "logP", "result": 2.89}
    ]},
    {"compound": "OC/C=C/c1ccccc1", "values": [
      {"measurement": "logP", "result": 1.95}
    ]},
    {"compound": "O=C(O)COc1ccc(S(=O)(=O)F)cc1", "values": [
      {"measurement": "logP", "result": 1.82}
    ]},
    {"compound": "CN1CC(C)(C)C(=O)c2ccccc21", "values": [
      {"measurement": "logD", "setting": "pH 7.0", "result": 2.72}
    ]},
    {"compound": "CC1=Nc2c(C)cccc2S(=O)(=O)N1", "values": [
      {"measurement": "logP", "result": 0.52}
    ]},
    {"compound": "CN(C)c1cccc(C(N)=O)c1", "values": [
      {"measurement": "logP", "result": 0.95}
    ]},
    {"compound": "O=C1CCCCO1", "values": [
      {"measurement": "logP", "result": -0.35}
    ]},
    {"compound": "CCCCCCCNC(=O)c1ccccc1", "values": [
      {"measurement": "logP", "result": 2.94}
    ]},
    {"compound": "O=C(O)COc1ccc(Cl)c(Br)c1", "values": [
      {"measurement": "logP", "result": 2.75}
    ]},
    {"compound": "CN(C)C(=O)CCc1ccco1", "values": [
      {"measurement": "logP", "result": 0.62}
    ]},
    {"compound": "O=[N+]([O-])c1cccc(C(F)(F)F)c1", "values": [
      {"measurement": "logD", "setting": "pH 7.0", "result": 2.62}
    ]},
    {"compound": "Cc1ccc(S(=O)(=O)Oc2ccccc2C(=O)N(C)C)cc1", "values": [
      {"measurement": "logP", "result": 2.01}
    ]},
    {"compound": "CCC1=Nc2cc(Cl)ccc2S(=O)(=O)N1", "values": [
      {"measurement": "logP", "result": 1.61}
    ]},
    {"compound": "C=C1C[C@]23C[C@@]1(O)CC[C@H]2[C@@]12C=C[C@H](O)[C@@](C)(C(=O)O1)[C@H]2[C@@H]3C(=O)O", "values": [
      {"measurement": "logP", "result": 0.24}
    ]},
    {"compound": "Nc1ncnc2c1ncn2[C@@H]1O[C@H](CO)[C@@H](O)[C@@H]1O", "values": [
      {"measurement": "logP", "result": -1.11}
    ]},
    {"compound": "C[C@@H]1C[C@H]2[C@@H]3CCC4=CC(=O)C=C[C@]4(C)[C@@]3(F)[C@@H](O)C[C@]2(C)[C@@]1(O)C(=O)CO", "values": [
      {"measurement": "logP", "result": 1.99}
    ]},
    {"compound": "CC(=O)c1cccc(F)c1", "values": [
      {"measurement": "logD", "setting": "pH 7.0", "result": 1.77}
    ]},
    {"compound": "O=S1(=O)NC(c2ccco2)=Nc2ccccc21", "values": [
      {"measurement": "logP", "result": 1.06}
    ]},
    {"compound": "CCC1(CC)OC(=O)c2ccccc21", "values": [
      {"measurement": "logP", "result": 2.69}
    ]},
    {"compound": "ClCCCCl", "values": [
      {"measurement": "logP", "result": 2}
    ]},
    {"compound": "CCCCOC1NC(=O)NC(=O)C1=[N+]=[N-]", "note": "(stereo unspecified)", "values": [
      {"measurement": "logP", "result": -0.55}
    ]},
    {"compound": "Cc1ccc([N+]([O-])=NC#N)cc1", "values": [
      {"measurement": "logP", "result": 2.39}
    ]},
    {"compound": "COc1cc(C=NO)ccc1O", "values": [
      {"measurement": "logP", "result": 2.16}
    ]},
    {"compound": "CC(=O)Nc1ccc2c(c1)S(=O)(=O)c1ccccc1C2=O", "values": [
      {"measurement": "logP", "result": 2.35}
    ]},
    {"compound": "CCCCc1ccc(C(=O)O)nc1", "values": [
      {"measurement": "logD", "setting": "pH 2.0", "result": 0.68}
    ]},
    {"compound": "O=c1[nH]c2ccccc2[nH]c1=O", "values": [
      {"measurement": "logP", "result": 0.2}
    ]},
    {"compound": "Cc1cccc(NC(=O)c2ccccc2)c1", "values": [
      {"measurement": "logP", "result": 2.75}
    ]},
    {"compound": "NN(c1ccccc1)c1ccccc1", "values": [
      {"measurement": "logD", "setting": "pH 13.0", "result": 2.8}
    ]},
    {"compound": "COc1ccccc1C=CC(=O)ON=Cc1ccc(OCCO)c(OC)c1", "values": [
      {"measurement": "logP", "result": 3.56}
    ]},
    {"compound": "CC(=O)N(c1ccccc1)c1ccccc1", "values": [
      {"measurement": "logP", "result": 2.05}
    ]},
    {"compound": "NC(=O)c1cccc([N+](=O)[O-])c1", "values": [
      {"measurement": "logP", "result": 0.77}
    ]},
    {"compound": "CC(=O)c1cccc(C#N)c1", "values": [
      {"measurement": "logD", "setting": "pH 7.0", "result": 1.16}
    ]},
    {"compound": "O=S(=O)(Cc1ccccc1)c1ccccc1", "values": [
      {"measurement": "logP", "result": 2.05}
    ]},
    {"compound": "CS(=O)(=O)Nc1cccc(NS(C)(=O)=O)c1", "values": [
      {"measurement": "logP", "result": 0.07}
    ]},
    {"compound": "CCCCCCC1CCC(=O)O1", "note": "(stereo unspecified)", "values": [
      {"measurement": "logP", "result": 2.72}
    ]},
    {"compound": "c1nc[nH]n1", "values": [
      {"measurement": "logP", "result": -0.58}
    ]},
    {"compound": "CCN(CC)c1c(C)n(-c2ccccc2)c(=O)n(C)c1=O", "values": [
      {"measurement": "logD", "setting": "pH 7.4", "result": 2.19}
    ]},
    {"compound": "O=S(=O)(Nc1ccccc1)c1ccccc1", "values": [
      {"measurement": "logP", "result": 2.58}
    ]},
    {"compound": "O=c1cn[nH]c(=O)[nH]1", "values": [
      {"measurement": "logD", "setting": "pH 7.4", "result": -1.37}
    ]},
    {"compound": "COc1cccc(C(=O)N(C)C)c1", "values": [
      {"measurement": "logP", "result": 1}
    ]},
    {"compound": "CN(C)/N=N/c1ccccc1Cl", "values": [
      {"measurement": "logD", "setting": "pH 7.4", "result": 3.03}
    ]},
    {"compound": "Nc1nc(N)c2ccccc2n1", "values": [
      {"measurement": "logD", "setting": "pH 13.0", "result": 1}
    ]},
    {"compound": "CCOC(=O)C(=Cc1ccc(Cl)cc1)C(C)=O", "values": [
      {"measurement": "logP", "result": 3.04}
    ]},
    {"compound": "O=CNc1nccs1", "values": [
      {"measurement": "logP", "result": 0.54}
    ]},
    {"compound": "Cc1ccc(Cl)cc1C", "values": [
      {"measurement": "logP", "result": 3.82}
    ]},
    {"compound": "COc1ccc(C=O)cc1", "values": [
      {"measurement": "logD", "setting": "pH 7.0", "result": 1.61}
    ]},
    {"compound": "CC(C)C1OC(=O)c2ccccc21", "note": "(stereo unspecified)", "values": [
      {"measurement": "logP", "result": 2.1}
    ]},
    {"compound": "Nc1cccc(OC(=O)CNC(=O)c2ccccc2)c1", "values": [
      {"measurement": "logP", "result": 1.3}
    ]}
  ]
}
